Measurements published in patent US12144792B2, “Therapeutic agents for neurodegenerative diseases” (priority 2016, dated 2024).

Columns and labels:
Format in all cases: in vivo, human
[1] = tested on: patients with downbeat nystagmus; test: Case studies, clinical examination (visual acuity, posturography)
From the text: The patient was diagnosed with downbeat nystagmus: the patient was severely impaired by blurred vision (oscillopsia) due to the nystagmus, and experienced difficulties while reading and writing. The patient's visual acuity was: right 0.75, left 0.67, binocular 0.83, and the downbeat nystagmus was documented by video-oculography. […] […] […] The patient was able to suppress the nystagmus by visual fixation. In addition, the patient's spatial orientation was improved.

[2] = tested on: patients with progressive supranuclear palsy; test: Case studies, clinical examination
Protocol: After 27 days of acetyl-leucine treatment, medication was stopped and the patient was re-examined 60 days later. […] Gait analysis was performed before treatment commenced. After 17 days of treatment, medication was stopped and the patient was re-examined 4 days later. […] Gait analysis was performed before treatment commenced. After three weeks of treatment, medication was stopped and the patient was re-examined.

[3] = tested on: patient with frontotemporal dementia with parkinsonism; test: Case study, clinical examination; settings: Ex. 9, frontotemporal dementia with parkinsonism; L-Dopa and Ropinirol together
From the text: After approximately one month of acetyl-leucine treatment, medication was stopped and the patient was re-examined 13 days later.

[4] = tested on: patients with multiple system atrophy Parkinson type (MSA-P); test: Case studies, clinical examination
From the text: Medication was stopped. […] The patient evaluated after one month on acetyl-DL-leucine. […] Episodes of mental confusion completely disappeared. The patient's cognitive structure seemed much clearer and straighter. […] The patient's spouse supported continuing the medication.

[5] = tested on: patient with corticobasal syndrome; test: Case study, clinical examination; settings: Ex. 10, corticobasal syndrome
Protocol: Gait analysis was performed before treatment commenced. After 20 days of acetyl-leucine treatment, the patient was re-examined. […] After 8 weeks of acetyl-leucine treatment, medication was stopped and the patient was re-examined 6 days later.

[6] = tested on: patient with Lewy Body dementia; test: Case study, clinical evaluation; settings: Ex. 17, Lewy Body dementia; Levodopa 100 mg 4× daily and Quetiapin 25 mg at night together
Protocol: The patient started taking acetyl-leucine (3 g/day for one week; 5 g/day thereafter) and was evaluated after four weeks. […] Medication was reduced to 3 g/day, and the patient was instructed to stop medication about two weeks later.

[7] = tested on: patients with amyotrophic lateral sclerosis (ALS); test: Case studies, medical examination; settings: Ex. 7 Patient 1, ALS; before acetyl-DL-leucine
From the text: The results were documented by video.

Nc1ccncc1 [4-aminopyridine]
response to treatment ([1]; Ex. 12 Patient 1, downbeat nystagmus, 10 mg twice daily for four weeks): did not give rise to any benefit | response to treatment ([1]; Ex. 12 Patient 2, downbeat nystagmus): did not benefit

N[C@@H](Cc1ccc(O)c(O)c1)C(=O)O [L-Dopa]
response to treatment ([2]; Ex. 11 Patient 1, progressive supranuclear palsy): little improvement | response to treatment ([2]; Ex. 11 Patient 2, PSP): no levodopa response | response to treatment ([2]; Ex. 11 Patient 3, PSP): no levodopa response | response to treatment ([2]; Ex. 11 Patient 4, PSP): slight levodopa response | response to treatment [3]: little improvement | response to treatment ([4]; Ex. 13 Patient 1, MSA-P, 100/25 mg 3× daily): discreet Levodopa response | tolerability ([4]; Ex. 13 Patient 3, MSA-P): suspended due to side effects | response to treatment [5]: no improvement | response to treatment [6]: improved the symptomatology

OCCOCCN1CCN(C2=Nc3ccccc3Sc3ccccc32)CC1 [Quetiapin]
response to treatment [6]: improved the symptomatology

Nc1nc2ccc(OC(F)(F)F)cc2s1 [Riluzol]
clinical symptomatology [7]: clinical symptomatology remained unchanged

CCCN(CCC)CCc1cccc2c1CC(=O)N2 [Ropinirol]
response to treatment [3]: little improvement
